Test results from paper PMC12508063, “Chloroindazole based estrogen receptor β ligands with favorable pharmacokinetics promote functional remyelination and visual recovery” (Scientific Reports, 2025).
Values belong to the compound of their own block, whether it stands above or below them.

Tests used:
[1] = plasma
[2] = hepatocytes, 0.25 h
primary mouse OPCs = test: OL differentiation in primary mouse OPC culture (MBP, DAPI); assay type: cell-based; conditions: 10 nM and 100 nM, concentration-dependent
Description: Mouse and Human primary cell cultures: Primary OPC/OL culture were isolated from the cortices of postnatal day 0–1 C57BL/6J mice of both sexes, using established protocols[11],[20],[21]. Mouse OPC and Neuronal Co-cultures: Primary neuronal cultures were established in Neurobasal medium with B27 and plated on poly-L-lysine-coated coverslips. After 12 days, OPCs were isolated, counted, and added to neuronal cultures and media was replaced with neuronal and proliferation media for 3 days, then switched to maturation media that maintained both neurons and OLs. Human iPSC-derived OPCs (Tempo’s iOligo™) were expanded, cryopreserved, and later plated on Matrigel-coated coverslips. After 3 days in growth medium, cells were treated for 3 weeks with T3 containing maturation medium. Differentiation into myelin-producing OLs was assessed using O4 (OL surface marker on pre-OLs) and myelin basic protein (MBP) immunohistochemistry. In all conditions compounds or vehicle were added to culture during differentiation for either 5 days (mouse) or 18 days (human).
Immunocytochemistry and Image Analysis of cell cultures: After treatment, cells were fixed and stained for MBP and DAPI. Coverslips were imaged using a confocal microscope at 10× and 40× objectives. Cell densities were quantified using ImageJ and normalized to control conditions. MBP-positive cells, their process extensions, and highly branched OLs were counted to assess differentiation. Co-culture images were analyzed for MBP and β3-tubulin colocalization using JACoP[22] in ImageJ, with results validated by manual quantification.
Primary OL Progenitor cells (OPC) and Neuronal Cultures: OPC and cortical neuronal cultures were prepared from the cortices of postnatal day P0-P1 C57BL/6J mice of both sexes, following established protocols (1, 2);(3). The single-cell suspension was divided into two tubes. One tube was treated with warm Neuronal Basal media, counted, and plated onto poly-L-lysine (PLL)-coated glass coverslips. The second tube was resuspended in glial growth medium, composed of DMEM-F12 supplemented with 10% fetal bovine serum, and placed in a PLL-coated culture flask for 8–10 days until confluent. Primary OPCs were then isolated by shaking and either co-cultured with primary neurons or plated onto poly-D-lysine-coated glass coverslips (three coverslips per condition, 2x10^6 cells per coverslip). The OPCs were allowed to attach for three days, followed by five days in differentiating media (DMEM-F12 with Sato media containing triiodothyronine and thyroxine) supplemented with various analogues and remyelinating compounds. For comparison, a negative control (vehicle, consisting of the media and ethanol mixture used to dissolve the analogues and remyelinating compounds) and a normal control (differentiating media alone) were included in the experiments.
Quantification of Mature OLs and Co-culture axon myelination: At the conclusion of the treatment period, cells were fixed and subjected to immunocytochemistry to evaluate myelin basic protein (MBP) expression, co-stained with the nuclear marker DAPI (shown in blue). […] Cell counting was performed using the ImageJ multipoint tool, and cell densities were calculated by dividing the counts by the image area (mm²). […]
To assess OL differentiation, the number of MBP-positive (MBP+) cells and process extensions exceeding the diameter of the cell body were quantified.

[3] = Stability in human plasma; assay type: in vitro ADME
[4] = plasma; remark: listed apart in the source
[5] = hepatocytes
EAE mice = test: EAE clinical disease score; assay type: in vivo, C57BL/6J mouse; conditions: 5 mg/kg/day SC from peak disease
Description: EAE induction and treatment: EAE was induced in 8–10-week-old wild-type C57BL/6J mice using MOG₃₅-₅₅ peptide[11],[14],[23]–[25]. Mice were scored daily using a standard clinical scale (0–5) and tested for their ability to stay on a rotarod. […] At peak disease (18–22 days post-immunization), animals were grouped into EAE+Vehicle, EAE+K102, and EAE+K110.
Fig. 3 Experimental design for treatment effects in EAE. (A) Experimental plan. […] Following emulsion injection, mice were injected with pertussis (PTX). Mice were scored for their clinical EAE score daily. EAE mice (red) show signs of disease starting at days 8–17. At peak disease between the days […], therapeutic treatment started and continued daily until the end of the experiment (D35-45). […] N = 6–8 mice/group. Two-Way unbalanced ANOVA with Dunnett’s multiple comparisons test was performed. […]
EAE induction and treatment: Eight to ten-week-old wild-type C57BL/6J mice were induced with active EAE using MOG35-55 peptide as previously described (1-5). […] Animals were scored daily for clinical EAE scores as follows: 0, unaffected; 1, complete tail limpness; 2, failure to right upon attempt to roll over; 3, partial hind limb paralysis; 4, complete hind limb paralysis; […]. At peak disease 18-22 dpi, mice were scored and separated into 3 groups: EAE+V, EAE+SHK-K102, and EAE+K110. […]

CYP1A2 = CYP1A2 (Homo sapiens, UniProt P05177); test: in vitro
CYP1A2, sequence (P05177 whole entry): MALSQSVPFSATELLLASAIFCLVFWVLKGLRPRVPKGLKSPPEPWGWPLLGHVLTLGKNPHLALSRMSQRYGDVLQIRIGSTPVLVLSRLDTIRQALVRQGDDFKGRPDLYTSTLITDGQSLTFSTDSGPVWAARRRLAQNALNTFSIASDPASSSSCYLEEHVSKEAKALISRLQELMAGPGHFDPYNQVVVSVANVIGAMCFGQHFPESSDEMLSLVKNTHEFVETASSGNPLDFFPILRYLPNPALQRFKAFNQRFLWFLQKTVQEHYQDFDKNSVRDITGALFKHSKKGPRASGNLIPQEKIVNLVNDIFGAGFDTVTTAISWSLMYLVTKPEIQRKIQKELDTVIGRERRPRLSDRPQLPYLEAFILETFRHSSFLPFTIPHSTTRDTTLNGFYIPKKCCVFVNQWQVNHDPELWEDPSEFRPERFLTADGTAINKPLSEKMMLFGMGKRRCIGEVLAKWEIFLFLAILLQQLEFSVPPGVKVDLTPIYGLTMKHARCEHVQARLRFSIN

[6] = system: multiple sclerosis patients; conditions: oral estriol combined with glatiramer acetate (GA), Phase 2 trial; cited from earlier work

Protein Binding (% Bound) Human [1]: 98.05% | Hepatocyte Stability (Mouse) % Remaining (15 min) [2]: 10.94% | % Remaining at 6 hr in Human Plasma [3]: 91.37% | Protein Binding (% Bound) Mouse [4]: 97.74% | Hepatocyte Stability (Human) CLint [5]: 78.30 µL/min/mg protein | Hepatocyte Stability (Human) % Remaining (15 min) ([5]; 0.25 h): 57.83%
Compound: Oc1ccc(-n2nc3ccc(O)cc3c2Cl)cc1 [Compound K101, IndCl]
number of MBP+ cells vs vehicle (primary mouse OPCs): significantly increased | EAE clinical disease (EAE mice): decrease in EAE clinical disease

inhibition at 10 µM (CYP1A2): 91.7%
Compound: Cc1nc2c([nH]1)c(=O)n(C)c(=O)n2Cc1ccco1 [Furafylline]

Compound: C[C@]12CC[C@@H]3c4ccc(O)cc4CC[C@H]3[C@@H]1C[C@@H](O)[C@@H]2O [estriol]
reduction in annualized relapse rate compared to placebo [6]: 32%
